Nine compounds from patent US12714107B2, “Dioxazolines and their use as herbicides” (BASF SE, priority 2020, dated 2026) can be followed below.

For one assay, the system named is AVEFA. Kind of assay: greenhouse herbicidal activity, post-emergence method. It is filed as in vivo, Avena fatua. As to conditions: scale 0 to 100. An excerpt:
(§1) The culture containers used were plastic flowerpots containing loamy sand with approximately 3.0% of humus as the substrate. The seeds of the test plants were sown separately for each species.
(§2) For the pre-emergence treatment, the active ingredients, which had been suspended or emulsified in water, were applied directly after sowing by means of finely distributing nozzles. The containers were irrigated gently to promote germination and growth and subsequently covered with transparent plastic hoods until the test plants had rooted. This cover caused uniform germination of the test plants, unless this had been impaired by the active ingredients. For the post-emergence treatment, the test plants were first grown to a height of 3 to 15 cm, depending on the plant habit, and only then treated with the active ingredients which had been suspended or emulsified in water. For this purpose, the test plants were either sown directly and grown in the same containers, or they were first grown separately as seedlings and transplanted into the test containers a few days prior to treatment.
(§3) Depending on the species, the test plants were kept at 10-25° C. or 20-35° C., respectively. The test period extended over 2 to 4 weeks. During this time, the test plants were tended, and their response to the individual treatments was evaluated.
(§4) Evaluation was carried out using a scale from 0 to 100. […]

The next assay relates to APESV. Kind of assay: greenhouse herbicidal activity, pre-emergence method. It is filed as in vivo, Apera spica-venti. As to conditions: application rate 0,500 kg/ha, scale 0 to 100.
Source text: as §1, §2, §3, §4

The next assay relates to SETFA. The assay is described as above. Format: in vivo, Setaria faberi. As to conditions: application rate 1,000 kg/ha, scale 0 to 100.
Source text: as §1, §2, §3, §4

The subject of assay [1] is ECHCG. The assay is described as above. It is filed as in vivo, Echinocloa crus-galli. As to conditions: scale 0 to 100.
Source text: as §1, §2, §3, §4

The subject of assay [2] is AMARE. The description is as above. Format: in vivo, Amaranthus retroflexus. As to conditions: scale 0 to 100.
Source text: as §1, §2, §3
Evaluation was carried out using a scale from 0 to 100. 100 means no emergence of the test plants, or complete destruction of at least the aerial moieties, and 0 means no damage, or normal course of growth. A good herbicidal activity is given at values of 80 to 90 and a very good herbicidal activity is given at values of 90 to 100.
The test plants used in the greenhouse experiments were of the following species: […]

In assay [3] the test system is AMARE. Kind of assay: greenhouse herbicidal activity, post-emergence method. As to conditions: application rate 1,000 kg/ha, scale 0 to 100. It is filed as in vivo, Amaranthus retroflexus.
Source text: as §1, §2, §3, §4

Assay [4] has as its system ECHCG. The description is as above. It is filed as in vivo, Echinocloa crus-galli. As to conditions: scale 0 to 100.
Source text: as §1, §2, §3, §4

In another assay the test system is ALOMY. The description is as above. Format: in vivo, Alopercurus myosuroides. As to conditions: application rate 0,500 kg/ha, scale 0 to 100.
Source text: as §1, §2, §3, §4

The next assay relates to SETVI. The assay is described as above. It is filed as in vivo, Setaria viridis. As to conditions: application rate 0,500 kg/ha, scale 0 to 100.
Source text: as §1, §2, §3, §4

In the case of `COC(=O)CCCNC(=O)C1(C)ON=C(c2cc(Cl)cc(Cl)c2)O1` (centres unmarked) [compound 12], the “herbicidal activity against AVEFA” value in the assay on AVEFA (application rate 0,500 kg/ha) is given as “good (A good herbicidal activity is given at values of 80 to 90)”. Besides, in the assay with APESV, the “herbicidal activity against APESV” value is given as “good (A good herbicidal activity is given at values of 80 to 90)”.
Take `CC(CC(=O)O)NC(=O)C1(C)ON=C(c2cc(Cl)cc(Cl)c2)O1` (centres unmarked) [compound 17]: the “herbicidal activity against SETFA” value with SETFA was “very good (a very good herbicidal activity is given at values of 90 to 100)”. Besides, the “herbicidal activity against ECHCG” value with ECHCG [1] (application rate 1,000 kg/ha) is “good (A good herbicidal activity is given at values of 80 to 90)”.
Turning to `C=CC1(C(=O)NC(C)CC(=O)OC)ON=C(c2cc(Cl)cc(Cl)c2)O1` (centres unmarked) [compound 110], the “herbicidal activity against AMARE” value in the assay on AMARE [2] (application rate 1,000 kg/ha) and in the assay on AMARE [3] was “good (A good herbicidal activity is given at values of 80 to 90)” throughout.
For `C=CC1(C(=O)NC2C=CC(C(=O)OC)C2)ON=C(c2cc(Cl)cc(Cl)c2)O1` (centres unmarked) [compound 111], the “herbicidal activity against ECHCG” value in the assay with ECHCG [4] (application rate 0,250 kg/ha) and in the assay with ECHCG [1] (application rate 0,250 kg/ha) was “very good (a very good herbicidal activity is given at values of 90 to 100)” each time.
`COC(=O)CC(C)NC(=O)C1(C)ON=C(c2cc(Cl)cc(Cl)c2)O1` (centres unmarked) [compound 11]: the “herbicidal activity against ECHCG” value in the assay on ECHCG [4] (application rate 0,500 kg/ha) is given as “very good (a very good herbicidal activity is given at values of 90 to 100)”.
Take `COC(=O)C1C=CC(NC(=O)C2(C)ON=C(c3cc(F)cc(F)c3)O2)C1` (centres unmarked) [compound 18]: in the assay with AMARE [2] (application rate 1,000 kg/ha), the “herbicidal activity against AMARE” value was “very good (a very good herbicidal activity is given at values of 90 to 100)”.
Turning to `COC(=O)C1C=CC(NC(=O)C2(C(F)(F)F)ON=C(c3cc(Cl)cc(Cl)c3)O2)C1` (centres unmarked) [compound 19], the “herbicidal activity against AVEFA” value in the assay on AVEFA (application rate 0,250 kg/ha) is reported as “very good (a very good herbicidal activity is given at values of 90 to 100)”.
Turning to `COC(=O)C[C@H](C)NC(=O)C1(C(F)(F)F)ON=C(c2cc(Cl)cc(Cl)c2)O1` (stereo partly drawn) [compound 13, methyl (3S)-3-[[3-(3,5-dichlorophenyl)-5-(trifluoromethyl)-1,4,2-dioxazole-5-carbonyl]amino]butanoate], in the assay on ALOMY, the “herbicidal activity against ALOMY” value is “good (A good herbicidal activity is given at values of 80 to 90)”. In addition, the “herbicidal activity against AMARE” value in the assay with AMARE [2] (application rate 0,500 kg/ha) is given as “very good (a very good herbicidal activity is given at values of 90 to 100)”.
For the compound `COC(=O)C1CC(NC(=O)C2(C)ON=C(c3cc(F)cc(F)c3)O2)C1` (centres unmarked) [compound 16], the “herbicidal activity against SETVI” value with SETVI is reported as “very good (a very good herbicidal activity is given at values of 90 to 100)”.
